According to US20100120700A1, “METHODS AND COMPOSITIONS FOR TREATING CERVICAL CANCER” (priority 2000, published 2010):
Several values for one entry are separate records, joined by “and”; a condition that tells them apart may be missing. Equal values may be shown once.

Key:
Test in all cases: G assay PDZ-PL binding
Settings in all cases: peptide 10 uM, protein 5
NeDLG domain 3 = target: T1, NeDLG domain 3 (Homo sapiens, UniProt Q92796)
T1 construct: made in house; host or cells: E. coli (DH5alpha, BL21 or JM109), vector pGEX-3X
Method: (§1) (1) A PDZ-domain polypeptide is bound to a surface, e.g. a protein binding surface. In a preferred embodiment, a GST/PDZ fusion protein containing one or more PDZ domains is bound to a polystyrene 96-well plate. […] In one embodiment, the GST/PDZ fusion protein is bound via an anti-GST antibody that is coated onto the 96-well plate. Adequate binding to the plate can be achieved when: • a. 100 uL per well of 5 ug/mL goat anti-GST polyclonal antibody (Pierce) in PBS is added to a polystyrene 96-well plate (e.g., Num Polysorb) at 4° C. for 12 hours. • b. The plate is blocked by addition of 200 uL per well of PBS/BSA for 2 hours at 4° C. • c. The plate is washed 3 times with PBS. • d. 50 uL per well of 5 ug/mL GST/PDZ fusion protein) or, as a negative control, GST polypeptide alone (i.e. not a fusion protein) in PBS/BSA is added to the plate for 2 hours at 4° C. • e. The plate is again washed 3 times with PBS.
(§2) (2) Biotinylated PL peptides are allowed to react with the surface by addition of 50 uL per well of 20 uM solution of the biotinylated peptide in PBS/BSA for 10 minutes at 4° C., followed by an additional 20 minute incubation at 25° C.
(§3) (3) The binding of the biotinylated peptide to the GST/PDZ fusion protein surface can be detected using a variety of methods and detectors known to one of skill in the art. In one embodiment, 100 uL per well of 0.5 ug/mL streptavidin-horse radish peroxidase (HRP) conjugate dissolved in BSA/PBS is added and allowed to react for 20 minutes at 4° C. The plate is then washed 5 times with 50 mM Tris pH 8.0 containing 0.2% Tween 20, and developed by addition of 100 uL per well of HRP-substrate solution (TMB, Dako) for 20 minutes at room temperature (RT). The reaction of the HRP and its substrate is terminated by addition of 100 uL per well of 1M sulfuric acid, and the absorbance of each well of the plate is read at 450 nm.
(§4) (4) Specific binding of a PL peptide and a PDZ domain polypeptide is determined by comparing the signal from the well(s) in which the PL peptide and PDZ domain polypeptide are combined, with the background signal(s). The background signal is the signal found in the negative control(s). Typically a specific or selective reaction will be at least twice background signal, more typically more than 5 times background, and most typically 10 or more times the background signal. In addition, a statistically significant reaction will involve multiple measurements of the reaction with the signal and the background differing by at least two standard errors, more typically four standard errors, and most typically six or more standard errors. Correspondingly, a statistical test (e.g. a T-test) comparing repeated measurements of the signal with-repeated measurements of the background will result in a p-value<0.05, more typically a p-value<0.01, and most typically a p-value<0.001 or less. As noted, in an embodiment of the “G” assay, the signal from binding of a given PL peptide to immobilized (surface bound) GST polypeptide alone is one suitable negative control (sometimes referred to as “B 1”). Because all measurement are done in multiples (i.e. at least duplicate) the arithmetic mean (or, equivalently, average.) of several measurements is used in determining the binding, and the standard error of the mean is used in determining the probable error in the measurement of the binding. The standard error of the mean of N measurements equals the square root of the following: the sum of the squares of the difference between each measurement and the mean, divided by the product of (N) and (N−1). Thus, in one embodiment, specific binding of the PDZ protein to the platebound peptide is determined by comparing the mean signal (“mean S”) and standard error of the signal (“SE”) for a particular PL-PDZ combination with the mean B1. […]

EBP50 #311.1 domain 1 = target: T2, EBP50 #311.1 domain 1 (Homo sapiens, UniProt O14745)
T2 construct: made in house; host or cells: E. coli (DH5alpha or BL-21)
Method: as §1, §2, §3, §4

KIAA1284 domain 1 = target: T3, KIAA1284 domain 1 (Homo sapiens, UniProt Q9ULD6)
T3 construct: made in house; host or cells: E. coli (DH5alpha, BL21 or JM109)
Method: as §1, §2, §3, §4

SITAC-18 domain 2 = target: T4, SITAC-18 domain 2 (Homo sapiens, UniProt Q9H190)
T4 construct: made in house; host or cells: E. coli (DH5alpha, BL21 or JM109)
Method: as §1, §2, §3, §4

PTN-4 domain 1 = target: T5, PTN-4 domain 1 (Homo sapiens, UniProt P29074)
T5 construct: made in house; host or cells: E. coli (DH5alpha, BL21 or JM109), vector pGEX-3X
Method: as §1, §2, §3, §4

[1] = target: T6, Syntrophin gamma 1 domain 1 (Homo sapiens, UniProt Q9NSN8)
T6 construct: made in house; host or cells: E. coli (DH5alpha, BL21 or JM109), vector pGEX-3X
Method: as §1, §2, §3, §4

Serine Protease domain 1 = target: T7, Serine Protease domain 1 (Homo sapiens, UniProt O43464)
T7 construct: made in house; host or cells: E. coli (DH5alpha, BL21 or JM109)
Method: as §1, §2, §3, §4

Outer Membrane domain 1 = target: T8, Outer Membrane domain 1 (Homo sapiens, UniProt P57105)
T8 construct: made in house; host or cells: E. coli (DH5alpha, BL21 or JM109)
Method: as §1, §2, §3, §4

KIAA1719 domain 3 = target: T9, KIAA1719 domain 3 (Homo sapiens, UniProt Q9C0E4)
T9 construct: made in house; host or cells: E. coli (DH5alpha, BL21 or JM109)
Method: as §1, §2, §3, §4

ZO-2 domain 2 = target: T10, ZO-2 domain 2 (Homo sapiens, UniProt Q9UDY2)
T10 construct: made in house; host or cells: E. coli (DH5alpha, BL21 or JM109)
Method: as §1, §2, §3, §4

KIAA1526 #125.1 domain 1 = target: T11, KIAA1526 #125.1 domain 1 (Homo sapiens, UniProt Q9P202)
T11 construct: made in house; host or cells: E. coli (DH5alpha, BL21 or JM109)
Method: as §1, §2, §3, §4

KIAA0973 #288.2 domain 1 = target: T12, KIAA0973 #288.2 domain 1 (Homo sapiens, UniProt Q9Y2H9)
T12 construct: made in house; host or cells: E. coli (DH5alpha, BL21 or JM109)
Method: as §1, §2, §3, §4

Magi2 domain 5 = target: T13, Magi2 domain 5 (Homo sapiens, UniProt Q86UL8)
T13 construct: made in house; host or cells: E. coli (DH5alpha, BL21 or JM109), vector pGEX-3X
Method: as §1, §2, §3, §4

NOS1 domain 1 = target: T14, NOS1 domain 1 (Homo sapiens, UniProt P29475)
T14 construct: made in house; host or cells: E. coli (DH5alpha, BL21 or JM109)
Method: as §1, §2, §3, §4

T1 sequence (Q92796 with tags, fused parts or gaps): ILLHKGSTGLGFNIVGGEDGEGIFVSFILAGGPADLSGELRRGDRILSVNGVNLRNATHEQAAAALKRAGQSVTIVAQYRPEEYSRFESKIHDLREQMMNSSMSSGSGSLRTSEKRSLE
T6 sequence (Q9NSN8 49-149): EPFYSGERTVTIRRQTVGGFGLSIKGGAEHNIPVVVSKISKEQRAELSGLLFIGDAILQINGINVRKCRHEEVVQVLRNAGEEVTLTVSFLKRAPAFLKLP
T8 sequence (P57105 with tags, fused parts or gaps): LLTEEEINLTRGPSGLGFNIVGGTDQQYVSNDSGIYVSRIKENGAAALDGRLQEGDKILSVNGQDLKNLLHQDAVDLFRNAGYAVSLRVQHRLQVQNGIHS
T12 sequence (Q9Y2H9 963-1055): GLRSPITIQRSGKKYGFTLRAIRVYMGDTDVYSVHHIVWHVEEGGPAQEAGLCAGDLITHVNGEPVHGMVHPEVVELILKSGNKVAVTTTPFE
T11 sequence (Q9P202 130-232): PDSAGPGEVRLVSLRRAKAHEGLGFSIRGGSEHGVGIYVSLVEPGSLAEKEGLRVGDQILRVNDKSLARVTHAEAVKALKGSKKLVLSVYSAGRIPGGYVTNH
T4 sequence (Q9H190 with tags, fused parts or gaps): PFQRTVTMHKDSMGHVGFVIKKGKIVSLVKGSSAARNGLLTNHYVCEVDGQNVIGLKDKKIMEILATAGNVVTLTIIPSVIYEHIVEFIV
T9 sequence (Q9C0E4 with tags, fused parts or gaps): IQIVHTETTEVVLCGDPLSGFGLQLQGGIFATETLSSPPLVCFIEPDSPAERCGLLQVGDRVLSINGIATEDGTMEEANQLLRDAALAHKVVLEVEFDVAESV
T13 sequence (Q86UL8 1134-1231): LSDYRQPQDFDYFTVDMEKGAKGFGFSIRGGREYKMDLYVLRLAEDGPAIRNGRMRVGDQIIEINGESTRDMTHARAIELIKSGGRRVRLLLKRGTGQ
T10 sequence (Q9UDY2 with tags, fused parts or gaps): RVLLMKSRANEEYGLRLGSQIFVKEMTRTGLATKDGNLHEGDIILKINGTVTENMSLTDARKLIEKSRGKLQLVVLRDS
T7 sequence (O43464 344-452): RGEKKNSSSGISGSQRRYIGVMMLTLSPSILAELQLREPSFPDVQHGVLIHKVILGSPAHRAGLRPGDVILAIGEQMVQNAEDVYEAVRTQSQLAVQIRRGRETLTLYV
T5 sequence (P29074 518-605): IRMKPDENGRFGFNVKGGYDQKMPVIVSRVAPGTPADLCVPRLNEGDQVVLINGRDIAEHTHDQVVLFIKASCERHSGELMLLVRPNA
T2 sequence (O14745 with tags, fused parts or gaps): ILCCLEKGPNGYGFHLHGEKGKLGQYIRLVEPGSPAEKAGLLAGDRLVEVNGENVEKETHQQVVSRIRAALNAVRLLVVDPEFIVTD
T3 sequence (Q9ULD6 159-271): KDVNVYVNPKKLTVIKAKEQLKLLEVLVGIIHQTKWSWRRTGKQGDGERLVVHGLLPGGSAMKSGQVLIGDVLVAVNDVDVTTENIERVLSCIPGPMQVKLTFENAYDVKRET
T14 sequence (P29475 11-100): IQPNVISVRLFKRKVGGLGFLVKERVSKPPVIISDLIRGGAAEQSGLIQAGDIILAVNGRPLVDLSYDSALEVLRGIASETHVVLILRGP

20 mer peptide corresponding to the C-terminus of HPV16 E6 (PDZ ligand), biotinylated in binding assays; ends SSRTRRETQL (SEQ ID NO: 13) [HPV E6 #16]
Ave OD (NeDLG domain 3; A450 nm): 0.632 and 0.5225 | OD S/N (NeDLG domain 3; vs GST only well): 3.69 and 2.49 | Ave OD (EBP50 #311.1 domain 1; A450 nm): 0.4325 | OD S/N (EBP50 #311.1 domain 1; vs GST only well): 2.05 | Ave OD (KIAA1284 domain 1; A450 nm): 0.473 | OD S/N (KIAA1284 domain 1; vs GST only well): 2.72 | Ave OD (SITAC-18 domain 2; A450 nm): 0.484 | OD S/N (SITAC-18 domain 2; vs GST only well): 2.46 | Ave OD (PTN-4 domain 1; A450 nm): 0.8085 | OD S/N (PTN-4 domain 1; vs GST only well): 4.03 | Ave OD ([1]; A450 nm): 0.3585 and 0.618 | OD S/N ([1]; vs GST only well): 2.00 and 3.08 | Ave OD (Serine Protease domain 1; A450 nm): 0.3425 | OD S/N (Serine Protease domain 1; vs GST only well): 1.55 | Ave OD (Outer Membrane domain 1; A450 nm): 2.392 and 1.3595 | OD S/N (Outer Membrane domain 1; vs GST only well): 11.39 and 6.25 | Ave OD (KIAA1719 domain 3; A450 nm): 0.346 | OD S/N (KIAA1719 domain 3; vs GST only well): 1.65 | Ave OD (ZO-2 domain 2; A450 nm): 0.3565 | OD S/N (ZO-2 domain 2; vs GST only well): 2.15 | Ave OD (KIAA1526 #125.1 domain 1; A450 nm): 1.379 and 0.7665 | OD S/N (KIAA1526 #125.1 domain 1; vs GST only well): 6.69 and 3.57 | Ave OD (KIAA0973 #288.2 domain 1; A450 nm): 2.8295 and 3.85 | OD S/N (KIAA0973 #288.2 domain 1; vs GST only well): 10.11 and 16.42 | Ave OD (Magi2 domain 5; A450 nm): 0.651 | OD S/N (Magi2 domain 5; vs GST only well): 3.93 | Ave OD (NOS1 domain 1; A450 nm): 0.4775 | OD S/N (NOS1 domain 1; vs GST only well): 2.88
